# Data from article PMC2951497 (Journal of medicinal chemistry, 2010).
# “Also recorded” adds a separate entry of the source.
# Assays:
# 5-HT4 receptors = 5-HT4 receptors (Homo sapiens, UniProt Q13639); assay: GloSensor L9 assay for cAMP response; type: cell-based; conditions: agonist/inverse agonist assay; Ag. = agonist; Inv. Ag. = Inverse agonist
# BZP (rat brain site) = assay: NIMH-PDSP binding screen; conditions: read-out: Binding affinities (Ki) BZP (rat brain site)
# h5-HT1E = h5-HT1E (Homo sapiens, UniProt P28566); assay: NIMH-PDSP binding screen
# Chain of h5-HT1E (P28566 whole entry, the tested form may be a part): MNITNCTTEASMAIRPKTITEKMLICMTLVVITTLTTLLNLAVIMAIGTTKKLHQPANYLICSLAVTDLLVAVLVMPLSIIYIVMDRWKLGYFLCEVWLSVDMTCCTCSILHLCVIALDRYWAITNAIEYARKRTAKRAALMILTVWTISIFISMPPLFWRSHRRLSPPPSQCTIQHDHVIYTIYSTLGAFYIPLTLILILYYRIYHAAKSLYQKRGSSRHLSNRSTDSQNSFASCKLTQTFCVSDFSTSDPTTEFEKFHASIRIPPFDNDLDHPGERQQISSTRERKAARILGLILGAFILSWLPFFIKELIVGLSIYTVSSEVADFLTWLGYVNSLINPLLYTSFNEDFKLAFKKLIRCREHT
# hGABAA = assay: NIMH-PDSP binding screen; design: species or system human; conditions: read-out: Binding affinities (Ki) hGABAA
# [1] = target: human recombinant 5-HT4 receptors (h5-HT4) (Homo sapiens, UniProt Q13639); assay: NIMH-PDSP binding to human recombinant 5-HT4 receptors, [3H]GR 113808; conditions: for h5-HT4 Ki: h5-HT4 receptors expressed in HEK293T cells, averages of triplicate measurements
# Chain of human recombinant 5-HT4 receptors (h5-HT4) (Q13639 whole entry): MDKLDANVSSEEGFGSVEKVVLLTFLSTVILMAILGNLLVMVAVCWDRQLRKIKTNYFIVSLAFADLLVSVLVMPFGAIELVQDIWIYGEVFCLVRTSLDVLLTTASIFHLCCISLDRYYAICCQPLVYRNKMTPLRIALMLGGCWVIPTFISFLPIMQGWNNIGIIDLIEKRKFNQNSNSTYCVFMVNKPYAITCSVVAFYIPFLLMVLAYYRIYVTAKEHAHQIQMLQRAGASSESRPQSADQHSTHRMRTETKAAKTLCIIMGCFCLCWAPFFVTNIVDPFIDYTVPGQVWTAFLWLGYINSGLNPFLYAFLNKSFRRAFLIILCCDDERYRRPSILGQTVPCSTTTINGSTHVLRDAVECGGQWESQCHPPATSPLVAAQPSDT
# Chain of 5-HT4 receptors (Q13639 whole entry): as above
Efficacy (5-HT4 receptors),Ki (BZP (rat brain site)),Ki (h5-HT1E),Ki (hGABAA),selectivity against the full range of tested receptors and binding sites ([1]; 5-HT4 receptor selectivity),Compound,h5-HT4 Ki [1]
inverse agonists,–,–,–,–,"CCCCN1CCC(COC(=O)c2cc(I)c(N)c3c2OCCO3)CC1 [Compound 1, (1-Butylpiperidin-4-yl)methyl 8-amino-7-iodo-2,3-dihydrobenzo[b][1,4]dioxine-5-carboxylate, reference compound]",–
antagonists (inactive),–,–,–,–,"CCCCN1CCC(COC(=O)c2ccc(N)c3c2OCCO3)CC1 [Compound 4, reference compound]",–
inactive,–,–,–,–,"CCCCN1CCC(COC(=O)c2cc(C)c(N)c3c2OCCO3)CC1 [Compound 7, (1-Butylpiperidin-4-yl)methyl 8-amino-7-methyl-2,3-dihydrobenzo[b][1,4]dioxine-5-carboxylate]",–
inverse agonists,> 10 µM,> 10 µM,> 10 µM,–,"CCCCN1CCC(COC(=O)c2cc(Cl)c(NC)c3c2OCCO3)CC1 [Compound 8, (1-Butylpiperidin-4-yl)methyl 7-chloro-8-(methylamino)-2,3-dihydrobenzo[b][1,4]dioxine-5-carboxylate]",low nanomolar; also recorded: binding affinity comparable to that of 1
–,–,–,–,–,"CCCCN1CCC(COC(=O)c2cc(Br)c(NC)c3c2OCCO3)CC1 [Compound 9, (1-Butylpiperidin-4-yl)methyl 7-bromo-8-(methylamino)-2,3-dihydrobenzo[b][1,4]dioxine-5-carboxylate]",low nanomolar affinity
potent full agonist,–,–,–,–,"CCCCN1CCC(COC(=O)c2ccc(N)cc2OC)CC1 [Compound 12, (1-Butylpiperidin-4-yl)methyl 4-amino-2-methoxybenzoate]",–
antagonists (inactive),> 10 µM,–,> 10 µM,greater than 60 fold,"CCCCN1CCC(COC(=O)c2ccc(N)c(OC)c2)CC1 [Compound 13, (1-Butylpiperidin-4-yl)methyl 4-amino-3-methoxybenzoate]",low nanomolar; also recorded: affinity comparable to that of 1
inverse agonists,–,–,–,–,"CCCCN1CCC(COC(=O)c2cc(F)c(N)c3c2OCCO3)CC1 [Compound 17, (1-Butylpiperidin-4-yl)methyl 8-amino-7-fluoro-2,3-dihydrobenzo[b][1,4]dioxine-5-carboxylate]",low nanomolar
